Melting point and IC50 data for nine molecules are collected here from publication PMC6268433, “New Sorafenib Derivatives: Synthesis, Antiproliferative Activity Against Tumour Cell Lines and Antimetabolic Evaluation” (Molecules, 2012).

Data set [1] relates to primary human embryonic lung (HEL) fibroblast cells. In words: Cytostatic activity, Coulter counter. The format is cell-based. To be noted: Homo sapiens, Fibroblast; 72 h, cell number by Coulter counter; primary fibroblasts. As for the experimental part:
(§1) The experiments were carried out on six human tumour and one murine cell lines, which are derived from five solid tumour types and two (one murine and one human) suspension tumour cell lines. The following cell lines were used: HCT 116 (colon carcinoma), SW 620 (colon carcinoma), MCF-7 (breast carcinoma), H 460 (lung carcinoma), L1210 (murine leukemia), CEM (human lymphoma) and HeLa (cervix carcinoma). […] Compounds 3d and 3e with a benzene ring in the amide moiety, exerted a somewhat stronger (but still rather poor) cytostatic effect (IC50 ≈ 20-90 µM). […] The compounds were also equally cytostatic against primary human embryonic lung (HEL) fibroblast cells (Table 2). The obtained data clearly point to the obligatory presence of the [4-chloro-3-(trifluoromethyl)phenyl]carbamoyl group being crucial for high potency. Also, the 4a–e series of compounds are far more lipophilic than the 2 and 3 series of compounds, which may be related to their increased cytostatic potential.
(§2) The cytostatic activity of the tested compounds against murine leukemia L1210, human cervix carcinoma HeLa, human embrionic lung (HEL) and T-lymphocyte CEM cells was determined with cells grown in suspension (L1210, CEM) or monolayers (HeLa, HEL) in 200 µL-wells of 96-well microtiter plates (initial cell number: 5–7.5 × 10^4 cells/well). After 48 (L1210) or 72 (CEM, HeLa, HEL) h, the tumour cell number was determined by the use of a Coulter counter.

In data set [2] the test system is L1210 (murine leukemia). In words: Cytostatic activity, Coulter counter. The format is cell-based. As to conditions: Mus musculus, L1210; 48 h, cell number by Coulter counter; read-out: Tumour cell growth/IC50 L1210. As for the experimental part: as §1, §2
Data set [3] relates to CEM (human lymphoma). In words: Cytostatic activity, Coulter counter. Type of data set: cell-based. To be noted: Homo sapiens; 72 h, cell number by Coulter counter; read-out: Tumour cell growth/IC50 CEM. As for the experimental part:
as §1, §2

For data set [4], the system named is HeLa (cervix carcinoma). In words: Cytostatic activity, Coulter counter. The format is cell-based, human. As to conditions: Homo sapiens, HeLa; 72 h, cell number by Coulter counter; read-out: Tumour cell growth/IC50 HeLa. As for the experimental part: as §1, §2
Data set [5] relates to SW 620 (colon carcinoma). In words: Cytostatic activity, MTT assay. The format is cell-based, human. To be noted: Homo sapiens, SW-620, 72 h, read-out: Tumour cell growth/IC50 SW 620. As for the experimental part: as §1
(§3) HCT 116, SW 620, MCF-7, and H 460 cells were cultured as monolayers and maintained in Dulbecco’s modified Eagle medium (DMEM), supplemented with 10% fetal bovine serum (FBS), 2 mmol·L^–1 L-glutamine, 100 U·mL^–1 penicillin and 100 μg·mL^–1 streptomycin in a humidified atmosphere with 5% CO2 at 37 °C. The growth inhibition activity was assessed as described previously, according to the slightly modified procedure of the National Cancer Institute, Developmental Therapeutics Program. Briefly, the cells were seeded onto standard 96-well microtiter plates on day 0. The cell concentrations were adjusted according to the cell population doubling time (PDT): 3000 cells/well for HCT116 and SW 620 cell lines (PDT = 20–24 h) and 4,000 cells/well for MCF-7 cell lines (PDT = 33 h). Tested agents were then added in five consecutive 10-fold dilutions (10^–8 to 10^–4 mol·L^–1) and incubated for further 72 h. Working dilutions were freshly prepared on the day of testing. The solvent (DMSO) was also tested for eventual inhibitory activity by adjusting its concentration to be the same as in working concentrations (maximal concentration of DMSO was 0.25%). After 72 h of incubation, the cell growth rate was evaluated by performing the MTT assay (Promega) which detects dehydrogenase activity in viable cells. The absorbency (OD, optical density) was measured on a microplate reader at 570 nm. Each test point was performed in quadruplicate in at least three individual experiments. The results are expressed as IC50, which is the concentration necessary for 50% of inhibition. […] Each result is a mean value from three separate experiments.
(In general: Tetrazolium assays rely on reduction of a dye to a coloured formazan, in cell work by metabolically active cells.)

Data set [6] relates to MCF-7 (breast carcinoma). In words: Cytostatic activity, MTT assay. The format is cell-based, human. To be noted: Homo sapiens, MCF7, 72 h, read-out: Tumour cell growth/IC50 MCF-7. As for the experimental part: as §1, §3
For data set [7], the system named is HCT 116 (colon carcinoma). In words: Cytostatic activity, MTT assay. Type of data set: cell-based, human. As to conditions: Homo sapiens, HCT-116, 72 h, read-out: Tumour cell growth/IC50 HCT 116. As for the experimental part: as §1, §3
Data set [8] relates to H 460 (lung carcinoma). In words: Cytostatic activity, MTT assay. Type of data set: cell-based, human. To be noted: Homo sapiens, NCI-H460, 72 h, read-out: Tumour cell growth/IC50 H 460. As for the experimental part:
as §1, §3

In data set [9] the test system is RNA synthesis in CEM cells. In words: Antimetabolic activity: [5-3H]Urd incorporation (RNA synthesis) in CEM cell cultures. Type of data set: cell-based. As to conditions: Homo sapiens, CCRF-CEM, ~20 h, TCA-insoluble material. The source says:
(§4) A variety of compounds (2a, 3a, 4a with a cycloalkyl substituent directly attached to nitrogen atom, 2c, 3c, 4c with a cycloalkyl bound to nitrogen through a short spacer and 2e, 3e, 4e with an aromatic substituent) have been investigated on their inhibitory activity against DNA, RNA and protein synthesis in CEM cell cultures. The compounds were equally inhibitory to dThd (DNA synthesis), Urd (RNA synthesis) and Leu (protein synthesis) incorporation into TCA-insoluble cell material. The 2 series of compounds were least inhibitory whereas the 4 series were most inhibitory (IC50 in the lower micromolar range). Their antimetabolic IC50 values closely corresponded to their antiproliferative IC50 values. They also behaved as sorafenib in terms of antimetabolic potential (Table 3).
(§5) The procedures have been modified from previously described methods. Human CEM cells were seeded in 96-well microtiter plates at 10 × 10^4 cells/200 µL-well in the presence of serial dilutions of the tested compounds. Then, 0.25 µCi of [CH3-^3H]dThd (radiospecificity: 52 Ci/mmol) or 1 µCi of [5-^3H]Urd (radiospecificity: 26 Ci/mmol) or [4,5-^3H]Leu (radiospecificity: 160 Ci/mmol) were added and the drug-exposed tumour cell cultures further incubated at 37 °C for ~20 h. Then the content of each well was transfered to glass fiber discs (Wattman, GE Healthcare, Maidstone, UK), mounted on a manifold (Millipore, Billerica, MA, USA) and subsequently washed with PBS (to remove the radiolabel material that has not been incorporated in the cellular macromolecules), 10% and 5% trichoroacetic acid (TCA) (to precipitate DNA, RNA and proteins) and ethanol. Then, the radioactivity (TCA precipitate) associated with each disc was determined in a liquid scintillation counter (Packard, Palo Alto, CA, USA).

Data set [10] has as its system protein synthesis in CEM cells. In words: Antimetabolic activity: [4,5-3H]Leu incorporation (protein synthesis) in CEM cell cultures. The format is cell-based. As to conditions: Homo sapiens, CCRF-CEM, ~20 h, TCA-insoluble material.
Text: as §4, §5

Data set [11] relates to DNA synthesis in CEM cells. In words: Antimetabolic activity: [CH3-3H]dThd incorporation (DNA synthesis) in CEM cell cultures. To be noted: Homo sapiens, CCRF-CEM, ~20 h, TCA-insoluble material. The format is cell-based.
Text: as §4, §5

In the case of `O=C(NC1CCCCC1)c1cc(Cl)ccn1` [Compound 2b, 4-Chloro-N-cyclohexylpyridine-2-carboxamide], the melting point (usually the temperature, or range, at which the solid turns liquid) was 116 to 119 °C. The same molecule displayed an IC50 in data set [1] above 100 µM. Moreover, the IC50 in [2] was above 100 µM. For the same molecule, in data set [3], the IC50 was above 100 µM. For the same molecule, the IC50 in [4] is above 100 µM. Moreover, the IC50 in [5] was above 100 µM. Further, the IC50 in data set [6] was at least 100 µM. The IC50 in data set [7] is above 100 µM. In data set [8], the IC50 was found to be 35 ± 12 µM.

`O=C(NCC1CCCCC1)c1cc(Cl)ccn1` [Compound 2c, 4-Chloro-N-cyclohexylmethylpyridine-2-carboxamide] showed a melting point of 107 to 108 °C. Also, the IC50 in data set [1] was above 100 µM. In data set [2], the IC50 is above 100 µM. The IC50 in data set [3] is above 100 µM. Also, in [9], the IC50 was above 100 µM. Also, the IC50 in data set [4] is above 100 µM. In [10], this molecule displayed an IC50 above 100 µM. The molecule further displayed an IC50 in [11] above 100 µM. For the same molecule, in data set [5], the IC50 was at least 100 µM. In addition, the IC50 in data set [6] was at least 100 µM. The IC50 in data set [7] is at least 100 µM. In addition, the IC50 in data set [8] is above 100 µM.

Consider `O=C(NCc1ccccc1)c1cc(Cl)ccn1` [Compound 2d, 4-Chloro-N-benzylpyridine-2-carboxamide], for which the melting point lay within 70 to 72 °C. In [1], the IC50 was above 100 µM. In addition, in data set [2], the IC50 was at least 100 µM. Further, the IC50 in data set [3] was at least 100 µM. In addition, the IC50 in [4] was above 100 µM. The IC50 in [5] turned out to be 71 ± 28 µM. In addition, in data set [6], the IC50 is at least 100 µM. The IC50 in [7] is at least 100 µM. In [8], the IC50 was above 100 µM.

With `O=C(NCCc1ccccc1)c1cc(Cl)ccn1` [Compound 2e, 4-Chloro-N-phenylethylpyridine-2-carboxamide], the IC50 in data set [1], in data set [2], in data set [3], in data set [9], in data set [4] and in data set [10] was above 100 µM in each case. The IC50 is above 100 µM in data set [11]; above 100 µM in [5]; 57 ± 46 µM in data set [6]; at least 100 µM in data set [7]; above 100 µM in data set [8].

For the molecule `Nc1ccc(Oc2ccnc(C(=O)NC3CCCCC3)c2)cc1` [Compound 3b, 4-(4-Aminophenoxy)-N-cyclohexylpyridine-2-carboxamide], the melting point lay within 150 to 153 °C. In addition, the IC50 in [1] is above 100 µM. In addition, the IC50 in [2] came out at 234 ± 4.5 µM. Moreover, the IC50 in data set [3] is above 100 µM. In data set [4], the IC50 was above 100 µM. For the same molecule, the IC50 in data set [5] was at least 100 µM. Also, the IC50 in data set [6] was at least 100 µM. The IC50 in [7] was 37 ± 1 µM. Moreover, the IC50 in [8] is 65 ± 33 µM.

Molecule `Nc1ccc(Oc2ccnc(C(=O)NCC3CCCCC3)c2)cc1` [Compound 3c, 4-(4-Aminophenoxy)-N-cyclohexylmethylpyridine-2-carboxamide] yielded a melting point of 135 to 137 °C. The molecule also registered an IC50 in [1] above 100 µM. Besides, the IC50 in [2] came out at 163 ± 147 µM. The IC50 in data set [3] was above 100 µM. Besides, the IC50 in [9] was 92.1 ± 43 µM. Besides, the IC50 in [4] is above 100 µM. The IC50 in [10] came out at 70.6 ± 27.6 µM. In data set [11], this molecule displayed an IC50 above 100 µM. In addition, the IC50 in data set [5] is at least 100 µM. In addition, the IC50 in [6] was at least 100 µM. Further, the IC50 in data set [7] is at least 100 µM. Also, the IC50 in data set [8] is above 100 µM.

`O=C(Nc1ccc(Oc2ccnc(C(=O)NC3CCCCC3)c2)cc1)Nc1ccc(Cl)c(C(F)(F)F)c1` [Compound 4b, 4-[4-[[4-Chloro-3-(trifluoromethyl)phenyl]carbamoylamino]phenoxy]-N-cyclohexyl-pyridine-2-carboxamide]: the IC50 came to 3.2 ± 0.2 µM in [1]; 3.2 ± 1.7 µM in [2]; 3.6 ± 0.9 µM in data set [3]; 3 ± 0.2 µM in [4]; 3 ± 0.2 µM in data set [5]; 2 ± 0.6 µM in data set [6]. Moreover, the IC50 is 3 ± 0.8 µM in [7] and 2 µM in data set [8].

For the molecule `O=C(Nc1ccc(Oc2ccnc(C(=O)NCc3ccccc3)c2)cc1)Nc1ccc(Cl)c(C(F)(F)F)c1` [Compound 4d, 4-[4-[[4-Chloro-3-(trifluoromethyl)phenyl]carbamoylamino]phenoxy]-N-benzyl-pyridine-2-carbox-amide], the melting point is 160 to 163 °C. In data set [1], this molecule showed an IC50 of 3.1 ± 0.2 µM. For the same molecule, the IC50 in data set [2] amounted to 2 ± 0.4 µM. In data set [3], the IC50 was determined as 4.3 ± 0.4 µM. The IC50 in [4] was 2.6 ± 0.6 µM. In addition, the IC50 in [5] was determined as 2 ± 0.08 µM. In addition, the IC50 in [6] amounted to 2 ± 0.2 µM. Moreover, the IC50 in [7] turned out to be 2 ± 0.8 µM. In data set [8], the IC50 was 2 ± 0.2 µM.

For `O=C(Nc1ccc(Oc2ccnc(C(=O)NCCc3ccccc3)c2)cc1)Nc1ccc(Cl)c(C(F)(F)F)c1` [Compound 4e, 4-[4-[[4-Chloro-3-(trifluoromethyl)phenyl]carbamoylamino]phenoxy]-N-phenylethyl-pyridine-2-carboxamide], the IC50 in data set [1] worked out at 4.6 ± 0.36 µM; in data set [2] it was 2.2 ± 0.2 µM; in data set [3], 2.5 ± 0.9 µM; in data set [9], 6.6 ± 1.8 µM; in [4], 1.7 ± 0.2 µM; in [10], 11.8 ± 7.7 µM. Further, the IC50 in data set [11] turned out to be 12.7 ± 9 µM; in [5], 2 ± 0.4 µM; in data set [6], 2 ± 0.1 µM; in data set [7], 3 ± 0.7 µM; in [8], 2 ± 0.2 µM.
